# Patent US20100144763A1, “Pharmaceutical composition for inhibiting topoisomerase I and method for exploiting drug” (priority 2008, published 2010)
# pIC50: −log10 of the molar value.
# Columns and labels:
# [1] = test system: human breast MCF-7 carcinoma cells; test: MTT assay, cell growth inhibition / cytotoxicity; type: cell-based; conditions: MCF7, 24 h, read-out: IC50, cytotoxicity
# Experimental: Example 1 relates to cell growth inhibition of EVO according to the present invention. Breast cancer MCF-7 cells are cultured in Dulbecco's modified Eagle medium (DMEM) supplemented with 10% heat-inactivated fetal bovine serum (FBS), and 100 μg/ml penicillin-streptomycin. Conditions were maintained in a humidified 95% air/5% CO2 incubator at 37° C. The MTT [3-(4,5-dimethylthiazol-2-yl)-2,5-diphenyl tetrazolium bromide] assay was described previously to test the cytotoxicity of reagents and cell viability (Lin, Tsai, Chen, Chang, Lee et al., 2008). Cells (5000 cells/well) are grown on a 96-well plate supplemented with DMEM medium (with 1% FBS) for 24 hours. Then, cells are treated with CPT or EVO ([…]), and the viability is determined by the reduction of MTT. An MTT stock solution (5 mg of MTT/ml of PBS) is added to the growing cultures (at a final concentration of 0.5 mg/ml). The OD is measured with a spectrophotometer at 560 nm. A blank with DMSO alone is measured and subtracted from all values.
# The cytotoxic abilities of EVO and CPT are tested against human breast MCF-7 carcinoma cells, which express high levels of TopoI. CPT is used as a reference drug. Both compounds display efficient cytotoxicity after 24 h of drug exposure. […] Consequently, EVO is slightly less cytotoxic than CPT against breast MCF-7 carcinoma cells.
# [2] = target: T1, DNA TopoI from the vaccinia virus (Vaccinia virus, UniProt P68698); type: biochemical
# T1 construct: purchased EPICENTRE Biotechnologies, Madison, Wis
# [3] = target: T2, purified recombinant eukaryotic TopoI (Homo sapiens, UniProt P11387); type: biochemical; conditions: supercoiled DNA relaxation, TopoI prepared from recombinant DNA
# T2 sequence (P11387 1-765): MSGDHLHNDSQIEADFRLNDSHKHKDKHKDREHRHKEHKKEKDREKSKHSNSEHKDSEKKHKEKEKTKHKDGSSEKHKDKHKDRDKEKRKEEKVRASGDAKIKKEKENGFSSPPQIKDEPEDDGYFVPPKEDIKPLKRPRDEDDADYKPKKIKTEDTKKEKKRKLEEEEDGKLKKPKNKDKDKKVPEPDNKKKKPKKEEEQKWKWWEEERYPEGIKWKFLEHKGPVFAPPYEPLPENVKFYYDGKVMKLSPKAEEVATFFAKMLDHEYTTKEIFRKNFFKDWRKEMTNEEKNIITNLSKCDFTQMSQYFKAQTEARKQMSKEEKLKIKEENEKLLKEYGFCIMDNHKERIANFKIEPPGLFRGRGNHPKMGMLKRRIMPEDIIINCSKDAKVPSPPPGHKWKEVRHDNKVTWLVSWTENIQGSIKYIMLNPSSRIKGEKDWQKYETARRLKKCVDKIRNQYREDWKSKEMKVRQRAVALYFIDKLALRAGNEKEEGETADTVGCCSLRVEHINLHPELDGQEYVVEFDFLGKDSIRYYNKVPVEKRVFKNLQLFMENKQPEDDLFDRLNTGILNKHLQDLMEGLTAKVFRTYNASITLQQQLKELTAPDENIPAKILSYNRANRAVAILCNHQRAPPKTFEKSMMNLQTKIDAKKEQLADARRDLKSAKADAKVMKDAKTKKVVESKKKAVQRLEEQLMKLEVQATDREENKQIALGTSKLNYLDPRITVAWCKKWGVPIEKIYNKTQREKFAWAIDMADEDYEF
# [4] = target: T3, TopoI-DNA complex in 3H-thymidine-labeled MCF-7 cells (Homo sapiens, UniProt P11387); test: KCl/SDS precipitation assay, TopoI-DNA complex trapping; type: cell-based; conditions: 30 μM, 60 minutes, FIG. 4
# T3 construct: endogenous in cells; host or cells: MCF-7
# T3 sequence (P11387 1-765): T2 sequence (P11387 1-765)
# Experimental: Example 4 relates to using a KCl/SDS precipitation assay to show TopoI-DNA complex trapping activity of EVO according to the present invention. The formation of a cleavable complex in intact cells is quantified by a KCl-sodium dodecylsulfate (SDS) precipitation technique, a modified procedure described previously by Yoshinari et al. (1993). Cellular DNA is labeled by adding ^3H-thymidine to the medium to a final concentration of 10 μCi/ml. After an overnight incubation, cells are plated to a density of 1×10^5 cells/well in a 24-well plate for another overnight incubation, and treated with various concentrations of EVO (0˜30 μM) for 60 minutes. The medium is removed from each well, and cells are washed with phosphate-buffered saline (PBS) and lysed with 1 ml of prewarmed (65° C.) lysis solution (1.25% SDS, 5 mM EDTA, 0.4 mg/ml salmon sperm DNA). Lysate is sheared using a 21-gauge needle. The samples as background control are treated by the above procedure but with proteinase K (400 μg/ml) in the lysis buffer, and are incubated at 50° C. for 2 hour. KCl (325 mM), at 250 μl, is added to each sample, vortexed vigorously, cooled on ice for 10 minutes, and centrifuged at 2500 rpm for 10 minutes at 4° C. […] The pellet is resuspended in 400 μl prewarmed H2O (65° C.) and combined with 4 ml scintillation liquid, and the radioactivity counts are determined using a liquid scintillation counter. […]
# [5] = target: T4, free-form TopoI in MCF-7 cells (Homo sapiens, UniProt P11387); test: depletion assay for free-form TopoI (immunoblotting); type: cell-based
# T4 construct: endogenous in cells; host or cells: MCF-7
# T4 sequence (P11387 1-765): T2 sequence (P11387 1-765)
# Experimental: Example 3 relates to detection of the levels of free-form TopoI from breast cancer cells reduced by EVO according to the present invention. Provided that EVO is able to fix TopoI on DNA, the level of free-form TopoI should be decreased. Monolayers that are breast cancer MCF-7 cells of 50%—80% confluent are treated with drugs for a short time, and then cellular proteins are extracted from the MCF-7 cells. After that, the cellular proteins are separated electrophoretically in a 7.5% SDS polyacrylamide gel and electro-transferred to a polyvinylidene difluoride (PVDF) membrane. The membrane is incubated with the primary antibody (rabbit anti-human topoisomerase I antisera) at room temperature for 2 hours, and then incubated with a horseradish peroxidase-conjugated secondary immunoglobulin G (IgG) antibody. The immunoreactive bands are visualized with enhanced chemiluminescent reagents and photographed using a gel documentation system.
# A depletion assay for free-form TopoI is performed to confirm the effect of EVO on DNA topological catalysis of TopoI. This assay is based on the ability of CPT to trap TopoI and DNA to form a CPT-TopoI-DNA triple complex, to see if EVO inhibits TopoI activity through a similar mechanism. […] Depletion of TopoI protein by EVO is also detected in a concentration-dependent manner after 1 hour of treatment. […]
Structure (SMILES),pIC50 [1],inhibition of supercoiled plasmid DNA relaxation catalyzed by TopoI [2],inhibition activity toward purified recombinant eukaryotic TopoI [3],3H-thymidine-labeled DNA trapped in a covalent complex with TopoI [4] [%],"relative level of DNA-unlinked TopoI protein versus the control ([5]; 0˜10 μM, 1 hour of treatment, FIG. 3B) [%]","TopoI protein level in comparison to the untreated control ([5]; 10 μM, 120-minute treatment, FIG. 3A) [%]","inhibitory activity on TopoI catalytic supercoiled plasmid relaxation, compared with CPT and EVO [2]"
"CC[C@@]1(O)C(=O)OCc2c1cc1n(c2=O)Cc2cc3ccccc3nc2-1 [CPT, Camptothecin, reference compound]",5.49,retain a greater amount of uncatalytic supercoiled DNA in a dose-dependent manner,,,,,
"CN1c2ccccc2C(=O)N2CCc3c([nH]c4ccccc34)C21 (stereo not drawn) [EVO, Evodiamine]",5.22,inhibitory activity on TopoI catalytic relaxation in a dose-dependent manner,inhibited,43.6,< 40,< 20,
O=c1c2ccccc2nc2n1CCc1c-2[nH]c2ccccc12 [rutaecarpine],,,,,,,substantially equivalent to those of CPT and EVO
